pIC50: −log10 of the molar value.
Target: interaction between p53 and MDM2 proteins (Homo sapiens, UniProt Q00987)
Experiment: HTRF assay of inhibition of the p53-MDM2 interaction (GST-MDM2 / biotinylated p53 peptide)
Format: binding
Conditions: recombinant GST-tagged MDM2 and biotinylated p53 peptide, bsa:0.02%
Method: The ability of the compounds to inhibit the interaction between p53 and MDM2 proteins was measured by an HTRF (homogeneous time-resolved fluorescence) assay in which recombinant GST-tagged MDM2 binds to a peptide that resembles the MDM2-interacting region of p53. Binding of GST-MDM2 protein and p53-peptide (biotinylated on its N-terminal end) is registered by the FRET (fluorescence resonance energy transfer) between Europium (Eu)-labeled anti-GST antibody and streptavidin-conjugated Allophycocyanin (APC).
Add 10 uL diluted compounds (1:5 dilution in reaction buffer) to each well, mix by shaking. Add 20 uL biotinylated p53 peptide (180 nM working solution) in reaction buffer to each well and mix on shaker. Incubate at 37° C. for 1 h. Add 20 uL streptavidin-APC and Eu-anti-GST antibody mixture (6 nM Eu-anti-GST and 60 nM streptavidin-APC working solution) in TBS buffer with 0.2% BSA, shake at room temperature for 30 minutes and read using a TRF-capable plate reader at
665 and 615 nm (Victor 5, Perkin ElmerWallac). If not specified, the reagents were purchased from Sigma Chemical Co.

Chain of interaction between p53 and MDM2 proteins (Q00987 whole entry): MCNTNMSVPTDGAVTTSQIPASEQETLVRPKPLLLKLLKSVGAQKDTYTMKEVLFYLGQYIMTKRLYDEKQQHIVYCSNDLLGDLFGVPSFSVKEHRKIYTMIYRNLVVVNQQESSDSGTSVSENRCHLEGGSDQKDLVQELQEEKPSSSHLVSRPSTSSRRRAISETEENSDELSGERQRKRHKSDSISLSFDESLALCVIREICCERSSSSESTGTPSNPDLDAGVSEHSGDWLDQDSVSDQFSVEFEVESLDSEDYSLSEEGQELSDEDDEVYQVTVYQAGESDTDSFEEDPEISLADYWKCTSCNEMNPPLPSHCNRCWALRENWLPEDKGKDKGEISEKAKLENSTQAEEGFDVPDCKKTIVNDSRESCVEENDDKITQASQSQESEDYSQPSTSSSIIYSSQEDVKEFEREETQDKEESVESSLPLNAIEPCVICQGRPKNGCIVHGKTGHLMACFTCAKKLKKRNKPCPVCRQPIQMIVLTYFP

Row | SMILES | pIC50
1 | CC(C)(C)C[C@@H]1N[C@@H](C(=O)Nc2ccc(S(C)(=O)=O)cc2F)[C@H](c2cccc(Cl)c2F)[C@]12C(=O)Nc1cc(Cl)ccc12 (racemic) [Example 37, rac-(2′S,3′R,4′S,5′R)-6-chloro-4′-(3-chloro-2-fluoro-phenyl)-2′-(2,2-dimethyl-propyl)-2-oxo-1,2-dihydro-spiro[indole-3,3′-pyrrolidine]-5′-carboxylic acid (2-fluoro-4-methanesulfonyl-phenyl)-amide] | < 5.00
2 | CC(C)(C)C[C@@H]1N[C@@H](C(=O)Nc2ccc(C(=O)CO)cc2)[C@H](c2cccc(Cl)c2F)[C@]12C(=O)Nc1cc(Cl)ccc12 (racemic) [Example 42, rac-(2′S,3′R,4′S,5′R)-6-chloro-4′-(3-chloro-2-fluoro-phenyl)-2′-(2,2-dimethyl-propyl)-2-oxo-1,2-dihydro-spiro[indole-3,3′-pyrrolidine]-5′-carboxylic acid [4-(2-hydroxy-acetyl)-phenyl]-amide] | 7.85
3 | CC(C)(C)C[C@@H]1N[C@@H](C(=O)Nc2ccn(CCO)n2)[C@H](c2cccc(Cl)c2F)[C@]12C(=O)Nc1cc(Cl)ccc12 (racemic) [Example 44, rac-(2′S,3′R,4′S,5′R)-6-chloro-4′-(3-chloro-2-fluoro-phenyl)-2′-(2,2-dimethyl-propyl)-2-oxo-1,2-dihydro-spiro[indole-3,3′-pyrrolidine]-5′-carboxylic acid [1-(2-hydroxy-ethyl)-1H-pyrazol-3-yl]-amide] | 8.00
4 | CC(C)(C)C[C@@H]1N[C@@H](C(=O)Nc2ccc(C#N)cc2)[C@H](c2cccc(Cl)c2F)[C@]12C(=O)Nc1cc(Cl)c(F)cc12 (racemic) [Example 48, rac-(2′S,3′R,4′S,5′R)-6-chloro-4′-(3-chloro-2-fluoro-phenyl)-2′-(2,2-dimethyl-propyl)-5-fluoro-2-oxo-1,2-dihydro-spiro[indole-3,3′-pyrrolidine]-5′-carboxylic acid (4-cyano-phenyl)-amide] | 7.80
5 | CC(C)(C)C[C@@H]1N[C@@H](C(=O)Nc2ccc(C(N)=O)cc2)[C@H](c2cccc(Cl)c2F)[C@]12C(=O)Nc1cc(Cl)c(F)cc12 (racemic) [Example 49, rac-(2′S,3′R,4′S,5′R)-6-chloro-4′-(3-chloro-2-fluoro-phenyl)-2′-(2,2-dimethyl-propyl)-5-fluoro-2-oxo-1,2-dihydro-spiro[indole-3,3′-pyrrolidine]-5′-carboxylic acid (4-carbamoyl-phenyl)-amide] | 7.89
6 | CC(C)(C)C[C@@H]1N[C@@H](C(=O)Nc2ccc(I)cc2F)[C@H](c2cccc(Cl)c2F)[C@]12C(=O)Nc1cc(Cl)ccc12 (racemic) [Example 51, rac-(2′S,3′R,4′S,5′R)-6-chloro-4′-(3-chloro-2-fluoro-phenyl)-2′-(2,2-dimethyl-propyl)-2-oxo-1,2-dihydro-spiro[indole-3,3′-pyrrolidine]-5′-carboxylic acid (2-fluoro-4-iodo-phenyl)-amide] | 7.70
7 | CC(C)(C)C[C@@H]1N[C@@H](C(=O)Nc2ccc(C#N)cc2F)[C@H](c2cccc(Cl)c2F)[C@]12C(=O)Nc1cc(Cl)ccc12 (racemic) [Example 52, rac-(2′S,3′R,4′S,5′R)-6-chloro-4′-(3-chloro-2-fluoro-phenyl)-2′-(2,2-dimethyl-propyl)-2-oxo-1,2-dihydro-spiro[indole-3,3′-pyrrolidine]-5′-carboxylic acid (4-cyano-2-fluoro-phenyl)-amide] | 7.92
8 | CC(C)(C)C[C@@H]1N[C@@H](C(=O)Nc2ccc(C(N)=O)cc2F)[C@H](c2cccc(Cl)c2F)[C@]12C(=O)Nc1cc(Cl)ccc12 (racemic) [Example 53, rac-(2′S,3′R,4′S,5′R)-6-chloro-4′-(3-chloro-2-fluoro-phenyl)-2′-(2,2-dimethyl-propyl)-2-oxo-1,2-dihydro-spiro[indole-3,3′-pyrrolidine]-5′-carboxylic acid (4-carbamoyl-2-fluoro-phenyl)-amide] | 7.96
9 | CC(C)(C)C[C@@H]1N[C@@H](C(=O)Nc2ccn(CC(C)(C)O)n2)[C@H](c2cccc(Cl)c2F)[C@]12C(=O)Nc1cc(Cl)ccc12 (racemic) [Example 55, rac-(2′S,3′R,4′S,5′R)-6-chloro-4′-(3-chloro-2-fluoro-phenyl)-2′-(2,2-dimethyl-propyl)-2-oxo-1,2-dihydro-spiro[indole-3,3′-pyrrolidine]-5′-carboxylic acid [1-(2-hydroxy-2-methyl-propyl)-1H-pyrazol-3-yl]-amide trifluoroacetic acid] | 7.89
10 | CC(C)(C)C[C@@H]1N[C@@H](C(=O)Nc2ccc(I)cc2)[C@H](c2cccc(Cl)c2F)[C@]12C(=O)Nc1cc(Cl)ccc12 (racemic) [Example 56, rac-(2′S,3′R,4′S,5′R)-6-chloro-4′-(3-chloro-2-fluoro-phenyl)-2′-(2,2-dimethyl-propyl)-2-oxo-1,2-dihydro-spiro[indole-3,3′-pyrrolidine]-5′-carboxylic acid (4-iodo-phenyl)-amide] | 7.72
11 | COc1cc(C#N)ccc1NC(=O)[C@@H]1N[C@@H](CC(C)(C)C)[C@@]2(C(=O)Nc3cc(Cl)ccc32)[C@H]1c1cccc(Cl)c1F (racemic) [Example 58, rac-(2′S,3′R,4′S,5′R)-6-chloro-4′-(3-chloro-2-fluoro-phenyl)-2′-(2,2-dimethyl-propyl)-2-oxo-1,2-dihydro-spiro[indole-3,3′-pyrrolidine]-5′-carboxylic acid (4-cyano-2-methoxy-phenyl)-amide] | 7.64
12 | COc1cc(C(N)=O)ccc1NC(=O)[C@@H]1N[C@@H](CC(C)(C)C)[C@@]2(C(=O)Nc3cc(Cl)ccc32)[C@H]1c1cccc(Cl)c1F (racemic) [Example 59, rac-(2′S,3′R,4′S,5′R)-6-chloro-4′-(3-chloro-2-fluoro-phenyl)-2′-(2,2-dimethyl-propyl)-2-oxo-1,2-dihydro-spiro[indole-3,3′-pyrrolidine]-5′-carboxylic acid (4-carbamoyl-2-methoxy-phenyl)-amide] | 7.85
13 | CC(C)(C)C[C@@H]1N[C@@H](C(=O)Nc2ccc(C#N)cc2)[C@H](c2cccc(Cl)c2)[C@]12C(=O)Nc1cc(Cl)ccc12 (racemic) [Example 64, rac-(2′S,3′R,4′R,5′R)-6-chloro-4′-(3-chloro-phenyl)-2′-(2,2-dimethyl-propyl)-2-oxo-1,2-dihydro-spiro[indole-3,3′-pyrrolidine]-5′-carboxylic acid (4-cyano-phenyl)-amide] | 7.47
14 | CC(C)(C)C[C@@H]1N[C@@H](C(=O)Nc2ccc(C(N)=O)cc2)[C@H](c2cccc(Cl)c2)[C@]12C(=O)Nc1cc(Cl)ccc12 (racemic) [Example 65A, rac-(2′S,3′R,4′R,5′R)-6-chloro-4′-(3-chloro-phenyl)-2′-(2,2-dimethyl-propyl)-2-oxo-1,2-dihydro-spiro[indole-3,3′-pyrrolidine]-5′-carboxylic acid (4-carbamoyl-phenyl)-amide] | 8.05
15 | COc1cc(C#N)ccc1NC(=O)[C@@H]1N[C@@H](CC(C)(C)C)[C@@]2(C(=O)Nc3cc(Cl)ccc32)[C@H]1c1cccc(Cl)c1 (racemic) [Example 66, rac-(2′S,3′R,4′R,5′R)-6-chloro-4′-(3-chloro-phenyl)-2′-(2,2-dimethyl-propyl)-2-oxo-1,2-dihydro-spiro[indole-3,3′-pyrrolidine]-5′-carboxylic acid (4-cyano-2-methoxy-phenyl)-amide] | 7.85

Source: patent US8088815B2, “Spiroindolinone pyrrolidines” (Hoffman-La Roche Inc., priority 2009, dated 2012)
